Measured values: the supplement of paper PMC12076712
± gives the standard deviation of the averaged measurements.

What was measured:
Assay in all cases: pIC50, competition of probe 3 labelling in live cells
Settings in all cases: cell material: Jurkat cells
[1] = target: CDK5 (UniProt Q00535)
[2] = target: UniProt P06493
[3] = target: LIMK1 (UniProt P53667)
[4] = target: UniProt Q02750
[5] = target: PXMP2 (UniProt Q9NR77)
[6] = target: CLK1 (UniProt P49759)
[7] = target: T1, SGK3 (UniProt Q96BR1)
T1 sequence (whole entry): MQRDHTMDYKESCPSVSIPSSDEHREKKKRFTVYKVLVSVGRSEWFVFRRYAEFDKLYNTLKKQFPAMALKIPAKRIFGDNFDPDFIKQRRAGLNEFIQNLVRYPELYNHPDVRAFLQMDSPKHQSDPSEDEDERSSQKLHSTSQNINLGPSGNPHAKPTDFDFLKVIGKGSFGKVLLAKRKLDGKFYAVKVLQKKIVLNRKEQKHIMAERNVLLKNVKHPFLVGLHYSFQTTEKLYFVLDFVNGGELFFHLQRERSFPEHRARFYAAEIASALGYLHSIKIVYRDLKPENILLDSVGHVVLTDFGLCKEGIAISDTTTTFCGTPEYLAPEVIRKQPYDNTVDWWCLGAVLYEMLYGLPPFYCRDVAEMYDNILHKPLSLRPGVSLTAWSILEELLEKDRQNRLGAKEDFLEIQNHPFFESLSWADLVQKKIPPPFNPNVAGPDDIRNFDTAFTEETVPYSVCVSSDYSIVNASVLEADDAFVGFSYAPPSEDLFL

[8] = target: T2, UniProt O43318
T2 sequence (whole entry): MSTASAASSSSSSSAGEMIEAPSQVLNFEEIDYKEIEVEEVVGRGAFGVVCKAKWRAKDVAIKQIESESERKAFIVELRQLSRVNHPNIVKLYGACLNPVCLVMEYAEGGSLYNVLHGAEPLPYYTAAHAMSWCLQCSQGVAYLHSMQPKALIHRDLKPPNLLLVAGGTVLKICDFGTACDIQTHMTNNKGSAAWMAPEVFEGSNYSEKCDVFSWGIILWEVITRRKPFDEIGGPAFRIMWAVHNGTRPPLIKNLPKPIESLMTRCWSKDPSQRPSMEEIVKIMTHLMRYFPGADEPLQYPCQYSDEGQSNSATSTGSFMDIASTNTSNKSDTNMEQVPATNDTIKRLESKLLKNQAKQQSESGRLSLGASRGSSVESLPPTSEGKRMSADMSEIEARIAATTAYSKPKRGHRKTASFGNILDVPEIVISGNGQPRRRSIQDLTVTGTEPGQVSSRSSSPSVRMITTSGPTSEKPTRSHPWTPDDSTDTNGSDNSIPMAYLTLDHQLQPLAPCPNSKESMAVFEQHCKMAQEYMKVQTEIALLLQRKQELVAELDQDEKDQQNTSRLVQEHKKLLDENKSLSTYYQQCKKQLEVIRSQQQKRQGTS

[9] = target: SRC (UniProt P12931)
[10] = target: ABHD6 (UniProt Q9BV23)
[11] = target: T3, UniProt Q15831
T3 sequence (whole entry): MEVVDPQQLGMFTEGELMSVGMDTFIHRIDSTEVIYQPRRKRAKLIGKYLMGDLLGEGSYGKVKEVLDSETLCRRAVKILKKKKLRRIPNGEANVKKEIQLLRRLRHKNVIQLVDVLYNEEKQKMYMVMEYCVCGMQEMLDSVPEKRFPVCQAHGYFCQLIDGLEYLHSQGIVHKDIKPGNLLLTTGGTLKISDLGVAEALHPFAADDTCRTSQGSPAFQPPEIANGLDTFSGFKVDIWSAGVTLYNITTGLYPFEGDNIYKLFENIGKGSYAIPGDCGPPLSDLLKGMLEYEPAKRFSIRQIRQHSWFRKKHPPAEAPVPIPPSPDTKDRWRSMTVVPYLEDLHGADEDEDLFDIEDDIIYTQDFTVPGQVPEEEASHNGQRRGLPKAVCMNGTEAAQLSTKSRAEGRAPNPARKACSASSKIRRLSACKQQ

[12] = target: MAP4K5 (UniProt Q9Y4K4)
[13] = target: UniProt Q8NEB9
[14] = target: ABCC1 (UniProt P33527)
[15] = target: UniProt Q15418
[16] = target: TLK2 (UniProt Q86UE8)
[17] = target: SLK (UniProt Q9H2G2)
[18] = target: UniProt P19784
[19] = target: UniProt Q9Y6E0
[20] = target: UniProt Q9P289
[21] = target: UniProt Q9Y2H1
[22] = target: IRAK1 (UniProt P51617)
[23] = target: TAOK3 (UniProt Q9H2K8)
[24] = target: SPR (UniProt P35270)
[25] = target: UniProt P49841

SMILES | pIC50 [1] | pIC50 [2] | pIC50 [3] | pIC50 [4] | pIC50 [5] | pIC50 [6] | pIC50 [7] | pIC50 [8] | pIC50 [9] | pIC50 [10] | pIC50 [11] | pIC50 [12] | pIC50 [13] | pIC50 [14] | pIC50 [15] | pIC50 [16] | pIC50 [17] | pIC50 [18] | pIC50 [19] | pIC50 [20] | pIC50 [21] | pIC50 [22] | pIC50 [23] | pIC50 [24] | pIC50 [25]
CC#CC(=O)Nc1ccc2ncnc(Nc3cccc(Br)c3)c2c1 [EKI-785] | < 4.52 | < 4.52 | < 4.52 | < 4.52 |  |  |  |  |  |  |  |  |  |  |  |  |  |  |  |  |  |  |  |  | 
CCc1cnn2c(NCc3ccc[n+]([O-])c3)cc(N3CCCC[C@H]3CCO)nc12 [dinaciclib] |  |  |  |  | < 4.52 | < 4.52 | < 4.52 | < 4.52 | < 4.52 | < 4.52 | 5.24 ± 0.12 | < 4.52 | < 4.52 | < 4.52 | < 4.52 | < 4.52 | < 4.52 | < 4.52 | < 4.52 | < 4.52 | < 4.52 | < 4.52 | < 4.52 | < 4.52 | 4.85 ± 0.27
